Where “and” joins values, the source holds several entries; their conditions need not be identical. Equal entries are not always repeated.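 Method: 48-hour compound exposure of cells in 96-well plates, five concentrations, linear interpolation of endpoints. GI50 is the concentration that inhibits growth by half. TGI: concentration producing complete growth inhibition.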
Test system: MDA-MB-468 breast
Test: NCI tumour cell line growth inhibition, 48 h

N#C/C(=C1C=C/C(=N/O)C(Cl)=C/1)c1ccc(Cl)cc1
GI50: 3000 nM
TGI: 9700 nM

COc1ccc(C(=O)c2cc(OC)c(OC)c(OC)c2)cc1OC(=O)C(Cl)(Cl)Cl
GI50: 542 nM

O=S(=O)(Nc1ccc(Cl)c(F)c1)c1ccc(-c2cnc(C3CC3)o2)cc1
GI50: 187 nM
TGI: 998 nM

C/C=C/C1=CN2C(=O)c3cc(OC4OC(C)C(NC)C(C)(O)C4O)c(C)cc3N=C[C@@H]2C1 (some centres not stated)
GI50: 10.7 nM
TGI: 28.2 nM

NC(=O)c1c(Br)n(C2OC(CO)C(O)C2O)c2ncnc(N)c12 (configuration not stated)
GI50: 437 nM
TGI: 2360 nM

CC(C)N(Cc1c(F)cccc1F)c1ccc(CO)c(Cl)c1
GI50: 18.7 nM
TGI: 53.1 nM

CCn1nc(-c2ccc(C(=O)OC)cc2)nc2c(=O)n(C)c(=O)nc1-2
GI50: 189 nM
TGI: 477 nM

O=c1nc(Nc2ccc([N+](=O)[O-])cc2O)sc2ccccc12
GI50: 340 nM
TGI: 1210 nM

O=C1CCC/C=C\C[C@H]2C=CC(=O)/C2=C/C[C@H](CCc2cccc(C(F)(F)F)c2)O1
GI50: 1690 nM
TGI: 3710 nM

COc1ccc(OC)c(/C=C/C(=O)N/N=C/c2ccccc2)c1
GI50: 1960 nM
TGI: 6470 nM

Nc1ccccc1NC(=O)c1ccc(CNC(=O)OCc2cccnc2)cc1
GI50: 412 nM
TGI: 2050 nM

COC(=O)c1c(C)c2n(c1C)C(=O)C(c1ccccc1)=C2
GI50: 4880 nM
TGI: > 72800 nM

COc1cc(-c2nn(-c3ccc(NC(=O)NCCNS(=O)(=O)c4ccc(F)cc4)cc3)cc2-c2ccncc2)ccc1Cl
GI50: 323 nM
TGI: 1280 nM

Cc1ccc(-c2nc3nc(-c4ccc(Br)cc4)nc(N4CCCNCC4)c3o2)cc1
GI50: 3980 nM
TGI: 15900 nM

O=C1CCc2c(Oc3ccc4c(c3)[C@H]3[C@@H](O4)[C@@H]3c3nc4ccc(C(F)(F)F)cc4[nH]3)ccnc2N1
GI50: 1740 nM
TGI: 7130 nM

C=CC(C)c1cccc(C=O)c1O (configuration not stated)
GI50: 51600 nM
TGI: > 100000 nM

CCN(Cc1ccccn1)c1ccc(CO)c(Cl)c1
GI50: 127 nM
TGI: 331 nM

O=C(Nc1ccc(F)cc1F)c1cc(F)ccc1O
GI50: 2600 nM
TGI: 7880 nM

C#C[C@@]1(O)[C@@H](CO)O[C@@H](n2cc(Br)c3c(N)ncnc32)[C@@H]1O
GI50: 115 nM
TGI: 352 nM

Cc1ccc2cc3c(cc(C)c4ccccc43)c3c2c1CC3
GI50: > 100000 nM
TGI: > 100000 nM

COc1cc2c(cc1O)CC[C@@H]1[C@@H]2CC[C@]2(C)[C@@H](OCCCN(C)C)CC[C@@H]12
GI50: 120 nM
TGI: 300 nM

CN1C[C@@H](c2ccc(Cl)cc2)[C@]2(NC(=S)N(c3ccc(F)c(Cl)c3)C2=O)[C@@]12C(=O)NC1C=CC(Cl)=C[C@H]12 (some centres not stated)
GI50: 3380 nM
TGI: 12900 nM

CN1CCN(Cc2ccc(NC(=O)c3cncc(C#Cc4cnc5ccc(O[C@H]6CCOC6)nn45)c3)cc2C(F)(F)F)CC1
GI50: 750 nM
TGI: 1690 nM

CC(C)C[C@@H](NC(=O)[C@@H](Cc1ccccc1)NC(=O)c1cnccn1)B1Oc2ccc(C[C@H](NC(=O)[C@H](Cc3ccc4c(c3)OB([C@@H](CC(C)C)NC(=O)[C@@H](Cc3ccccc3)NC(=O)c3cnccn3)O4)NC(=O)[C@@H](N)CC3CCC4OB([C@@H](CC(C)C)NC(=O)[C@@H](CC5CCCCC5)NC(=O)C5CNCCN5)OC4C3)C(=O)NCCCC[C@@H]3NC(=O)[C@@H](Cc4ccccc4)NC(=O)[C@H](CC(=O)O)NC(=O)CNC(=O)[C@H](CCCNC(=N)N)NC3=O)cc2O1 (some centres not stated)
GI50: 2.72 nM and < 2.5 nM
TGI: 7.22 nM and < 2.5 nM

Source: PubChem BioAssay (NCI)
